Experimental data as given in ChEMBL document CHEMBL4616626, “Design, synthesis and biological evaluation of HIV-1 protease inhibitors with morpholine derivatives as P2 ligands in combination with cyclopropyl as P1' ligand” (Bioorg Med Chem Lett, 2020).

Target: Human immunodeficiency virus type 1 protease (Human immunodeficiency virus 1, UniProt Q72874)
Test: Inhibition of HIV1 protease by FRET assay

SMILES	IC50 [nM]
C[C@@H]1CN(CC(=O)N[C@@H](Cc2ccccc2)[C@H](O)CN(C2CC2)S(=O)(=O)c2ccc(C(F)(F)F)cc2)CCO1	2990
Nc1ccc(S(=O)(=O)N(C[C@@H](O)[C@H](Cc2ccccc2)NC(=O)N2CCOCC2)C2CC2)cc1	640
COc1ccc(S(=O)(=O)N(C[C@@H](O)[C@H](Cc2ccccc2)NCCN2CCOCC2)C2CC2)cc1	170
Nc1ccc(S(=O)(=O)N(C[C@@H](O)[C@H](Cc2ccccc2)NC(=O)OCCN2CCOCC2)C2CC2)cc1	61
C[C@@H]1CN(CC(=O)N[C@@H](Cc2ccccc2)[C@H](O)CN(C2CC2)S(=O)(=O)c2ccc([N+](=O)[O-])cc2)CCO1	930
O=C(CN1CCOCC1)N[C@@H](Cc1ccccc1)[C@H](O)CN(C1CC1)S(=O)(=O)c1ccc(C(F)(F)F)cc1	400
O=C(N[C@@H](Cc1ccccc1)[C@H](O)CN(C1CC1)S(=O)(=O)c1ccc([N+](=O)[O-])cc1)N1CCOCC1	790
C[C@H]1CN(CC(=O)N[C@@H](Cc2ccccc2)[C@H](O)CN(C2CC2)S(=O)(=O)c2ccc(N)cc2)CCO1	1340
O=[N+]([O-])c1ccc(S(=O)(=O)N(C[C@@H](O)[C@H](Cc2ccccc2)NCCN2CCOCC2)C2CC2)cc1	610
Nc1ccc(S(=O)(=O)N(C[C@@H](O)[C@H](Cc2ccccc2)NCC(=O)N2CCOCC2)C2CC2)cc1	1150
Nc1ccc(S(=O)(=O)N(C[C@@H](O)[C@H](Cc2ccccc2)NCCN2CCOCC2)C2CC2)cc1	940
O=C(N[C@@H](Cc1ccccc1)[C@H](O)CN(C1CC1)S(=O)(=O)c1ccc(C(F)(F)F)cc1)OCCN1CCOCC1	120
O=C(CN[C@@H](Cc1ccccc1)[C@H](O)CN(C1CC1)S(=O)(=O)c1ccc([N+](=O)[O-])cc1)N1CCOCC1	> 10000
C[C@H]1CN(CC(=O)N[C@@H](Cc2ccccc2)[C@H](O)CN(C2CC2)S(=O)(=O)c2ccc([N+](=O)[O-])cc2)CCO1	580
COc1ccc(S(=O)(=O)N(C[C@@H](O)[C@H](Cc2ccccc2)NC(=O)CN2CCOCC2)C2CC2)cc1	1040
COc1ccc(S(=O)(=O)N(C[C@@H](O)[C@H](Cc2ccccc2)NC(=O)N2CCOCC2)C2CC2)cc1	260
COc1ccc(S(=O)(=O)N(C[C@@H](O)[C@H](Cc2ccccc2)NC(=O)CN2CCO[C@H](C)C2)C2CC2)cc1	190
COc1ccc(S(=O)(=O)N(C[C@@H](O)[C@H](Cc2ccccc2)NC(=O)CN2CCO[C@@H](C)C2)C2CC2)cc1	1270
O=C(N[C@@H](Cc1ccccc1)[C@H](O)CN(C1CC1)S(=O)(=O)c1ccc([N+](=O)[O-])cc1)OCCN1CCOCC1	80
O=C(CN[C@@H](Cc1ccccc1)[C@H](O)CN(C1CC1)S(=O)(=O)c1ccc(C(F)(F)F)cc1)N1CCOCC1	1260
O=C(N[C@@H](Cc1ccccc1)[C@H](O)CN(C1CC1)S(=O)(=O)c1ccc(C(F)(F)F)cc1)N1CCOCC1	47
O=C(CN1CCOCC1)N[C@@H](Cc1ccccc1)[C@H](O)CN(C1CC1)S(=O)(=O)c1ccc([N+](=O)[O-])cc1	5430
COc1ccc(S(=O)(=O)N(C[C@@H](O)[C@H](Cc2ccccc2)NCC(=O)N2CCOCC2)C2CC2)cc1	180
C[C@H]1CN(CC(=O)N[C@@H](Cc2ccccc2)[C@H](O)CN(C2CC2)S(=O)(=O)c2ccc(C(F)(F)F)cc2)CCO1	400
C[C@@H]1CN(CC(=O)N[C@@H](Cc2ccccc2)[C@H](O)CN(C2CC2)S(=O)(=O)c2ccc(N)cc2)CCO1	1530
O=S(=O)(c1ccc(C(F)(F)F)cc1)N(C[C@@H](O)[C@H](Cc1ccccc1)NCCN1CCOCC1)C1CC1	1690
COc1ccc(S(=O)(=O)N(C[C@@H](O)[C@H](Cc2ccccc2)NC(=O)OCCN2CCOCC2)C2CC2)cc1	53 to 54
Nc1ccc(S(=O)(=O)N(C[C@@H](O)[C@H](Cc2ccccc2)NC(=O)CN2CCOCC2)C2CC2)cc1	> 10000
